27 molecules from ChEMBL document CHEMBL2216751, “PI3Kδ and PI3Kγ as targets for autoimmune and inflammatory diseases” (J Med Chem, 2012) can be followed below.

Data set [1] addresses T1, Phosphatidylinositol 4,5-bisphosphate 3-kinase catalytic subunit delta isoform (Homo sapiens, UniProt O00329).
T1 sequence (O00329 whole entry): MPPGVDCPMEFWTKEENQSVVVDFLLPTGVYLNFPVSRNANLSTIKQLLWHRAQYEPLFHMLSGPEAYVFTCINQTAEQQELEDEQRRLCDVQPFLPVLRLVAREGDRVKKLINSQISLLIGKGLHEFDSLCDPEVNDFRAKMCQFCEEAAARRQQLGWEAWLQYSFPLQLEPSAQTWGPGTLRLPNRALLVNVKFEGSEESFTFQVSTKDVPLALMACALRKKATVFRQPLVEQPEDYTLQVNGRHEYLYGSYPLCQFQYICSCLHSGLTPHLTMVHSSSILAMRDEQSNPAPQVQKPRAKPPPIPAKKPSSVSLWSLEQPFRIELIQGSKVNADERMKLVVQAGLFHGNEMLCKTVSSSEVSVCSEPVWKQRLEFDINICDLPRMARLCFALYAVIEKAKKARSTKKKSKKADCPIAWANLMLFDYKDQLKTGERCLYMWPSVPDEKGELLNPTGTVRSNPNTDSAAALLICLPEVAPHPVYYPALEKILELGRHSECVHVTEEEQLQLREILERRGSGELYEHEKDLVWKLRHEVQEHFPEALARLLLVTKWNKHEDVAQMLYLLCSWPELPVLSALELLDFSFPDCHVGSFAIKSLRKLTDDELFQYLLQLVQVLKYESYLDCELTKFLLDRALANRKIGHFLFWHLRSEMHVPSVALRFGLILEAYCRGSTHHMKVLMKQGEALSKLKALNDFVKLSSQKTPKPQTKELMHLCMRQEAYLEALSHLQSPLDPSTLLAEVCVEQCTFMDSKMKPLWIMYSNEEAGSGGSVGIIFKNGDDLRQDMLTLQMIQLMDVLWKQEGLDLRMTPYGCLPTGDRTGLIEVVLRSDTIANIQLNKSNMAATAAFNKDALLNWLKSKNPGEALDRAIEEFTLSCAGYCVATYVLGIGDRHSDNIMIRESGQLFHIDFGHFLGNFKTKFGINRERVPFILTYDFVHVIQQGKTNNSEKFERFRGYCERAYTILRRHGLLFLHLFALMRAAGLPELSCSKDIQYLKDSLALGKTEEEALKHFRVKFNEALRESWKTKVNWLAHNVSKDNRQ

Data set [2] can be described thus: Oral bioavailability in Han-Wistar rat. The settings on record: in vivo. It counts as ADME, organism-based.
The next data set deals with Mus musculus. In words: Antiinflammatory activity in LPS-induced COPD BALB/c mouse model assessed as reduction in pulmonary neutrophilia at 0.3 mg/kg, ip qd. It counts as functional. Further details: scale not given: the % may be the effect or the level left. The settings on record: route intraperitoneal.
For data set [3], the target named is T1, Phosphatidylinositol 4,5-bisphosphate 3-kinase catalytic subunit delta isoform. In words: Inhibition of PI3Kdelta-mediated AKT phosphorylation in human Ramos cells by ELISA. It counts as cell-based. On the technique in general: An ELISA detects its analyte on a solid surface through an enzyme-linked reagent.
The target is the same in data set [4]. The data set can be described thus: Inhibition of PI3Kdelta by cell-based assay.
For data set [5] the target is unchanged. In words: Inhibition of PI3Kdelta in human whole blood assessed as inhibition of CD69 production in B lymphocyte by immunoassay.

Some results are limits rather than exact numbers.

What is called Ki is a measure of affinity in units of concentration, obtained from inhibition or displacement. In data set [1], `CCN(CC)C(=O)c1cccc(Nc2nc3ccc(-c4cncc(OC)c4)cc3s2)n1` showed an inhibition constant (Ki) of 0.003 µM.

For orientation: bioavailability means dose-corrected exposure relative to a reference, in per cent. Consider `Cc1ccc(-c2ccc3c(c2)N(C2=NC4CC(C)(C)NC(=O)C4S2)CCO3)nn1` (centres undefined), for which, in data set [2], the bioavailability turned out to be 66%.

As to `CC(=O)Nc1nc(C)c(-c2ccc(Cl)c(S(=O)(=O)N[C@@H](C)C(=O)OC3CCCC3)c2)s1`, the IC50 in data set [1] (read-out: IC50) was less than 0.1 µM.

On to `OCCn1cnc2c(-n3c(C(F)F)nc4ccccc43)nc(N3CCOCC3)nc21`, for which the IC50 in data set [1] (read-out: IC50) is less than 0.03 µM.

Regarding `C[C@@H]1C[C@H]2[C@@H]3CCC4=CC(=O)C=C[C@]4(C)[C@@]3(F)[C@@H](O)C[C@]2(C)[C@@]1(O)C(=O)CO` [DEXAMETHASONE], in the data set on Mus musculus, the Activity was found to be 70%.

Molecule `C[C@H](Nc1ncnc(N)c1C#N)c1nc2ccc(F)cc2c(NCCS(C)(=O)=O)c1-c1ccccc1` showed a Ki in data set [1] of 0.00226 µM.

In data set [1], `Cc1c(-c2ccccn2)nc2cc(F)cc(F)c2c1Nc1cc(N2CCOCC2)cnc1-c1ccc(O)cc1` gave a Ki of 0.00285 µM.

Take `CC[C@H]1CN(c2sc(-c3nnc[nH]3)c(-c3ccc(Cl)cc3Cl)c2C#N)CCO1`: the IC50 in data set [1] (read-out: IC50) is less than 0.1 µM.

As to `CS(=O)(=O)N1CCN(Cc2cc3nc(-c4c(F)ccc5[nH]ccc45)nc(N4CCOCC4)c3s2)CC1`, in data set [1] (read-out: IC50), the IC50 is less than 0.1 µM.

On to `Cc1cccc2cc(C(C)Nc3ncnc4[nH]cnc34)nc(OC3CCN(C)CC3)c12` (centres undefined), for which the IC50 in data set [1] (read-out: IC50) is less than 0.1 µM.

For `CC(Nc1ncnc2[nH]cnc12)c1cc(Cl)c2cncn2c1-c1cccc(F)c1` (centres undefined), the IC50 in data set [1] (read-out: IC50) and in data set [3] was less than 0.1 µM throughout.

Take `COc1ccc(-c2cc(-c3ncc(CN4C[C@@H](C)O[C@@H](C)C4)o3)c3cn[nH]c3c2)cc1NS(C)(=O)=O`: in data set [1] (read-out: pIC50 (converted)), the IC50 was less than 0.1 µM.

On to `O=C(NCC(=O)N1CCCC1)Nc1nc2ccc(-c3cncc(C(F)(F)F)c3)cn2n1`, for which the IC50 in data set [1] (read-out: IC50) was less than 0.1 µM.

Consider `Cc1ccccc1-n1c(Cn2nc(-c3cc(O)cc(F)c3)c3c(N)ncnc32)nc2scc(C)c2c1=O`, for which the IC50 in data set [1] (read-out: IC50) and in data set [4] was less than 0.1 µM in each case.

On to `Cn1c(C(=O)NCC(F)(F)F)nc2c(N3CCC(n4c(=O)[nH]c5ncccc54)CC3)ncnc21`, for which the IC50 in data set [1] (read-out: IC50) was less than 0.05 µM.

On to `COc1ccc(NC(=O)c2c(C)oc3ncn(CC(C)C)c(=O)c23)cc1`, for which the IC50 in data set [1] (read-out: IC50) came to 0.0059 µM.

As for `CC(=O)Nc1nc2c(s1)-c1c(c(C3CC3)nn1C1CCC(C(=O)N[C@H]3CC[C@H](N4CCCC4)CC3)CC1)CC2` (some centres undefined), the IC50 in data set [1] (read-out: IC50) was less than 0.6 µM.

Regarding `CNc1nc(C)c2cc(-c3cc(O)cc(F)c3)ccc2n1`, the IC50 in data set [1] (read-out: IC50) was less than 0.1 µM.

`CCOC(=O)CCNC(=O)Nc1nc2c(s1)CN(c1cnc(Cl)c(OC)c1)CC2` returned a Ki in data set [1] of 0.003 µM.

Regarding `CC(C)c1nc2ccccc2n1-c1nc(N2CCOCC2)c2nc(OC3CN(C4CCS(=O)(=O)CC4)C3)n(C)c2n1`, the IC50 in data set [5] came to 0.003 µM.

With `COc1ccc(-c2nn(C)c3nc(N)nc(NCc4ccccc4)c23)cc1F`, the IC50 in data set [1] (read-out: IC50) was less than 2 µM.

Regarding `Cc1nc2ccccc2n1-c1nc(N2CCOCC2)c2oc(CN3CCN(C(C)(C)C(N)=O)CC3)cc2n1`, the IC50 in data set [5] was 0.0178 µM.

Turning to `Cc1nc(C(=O)Nc2cc(-c3cnc4[nH]nc(S(C)(=O)=O)c4c3)cc3[nH]ncc23)cs1`, in data set [1], the pIC50 entry was “>= 5”.

`Nc1ncc(-c2ccc(Cl)c(S(=O)(=O)Nc3ccccc3)c2)nc1C(=O)c1cccnc1`: the IC50 in data set [1] (read-out: IC50) was determined as 0.012 µM.

For `C[C@@H]1CN(Cc2nnc(-c3cc(-c4cccc5[nH]ccc45)cc4[nH]ncc34)o2)C[C@H](C)O1`, the pIC50 entry in data set [1] is recorded as “>= 5”.

Consider `CC(Nc1ncnc2[nH]cnc12)c1c(C#N)c2ccc(Cl)cc2n1-c1cccc(F)c1` (centres undefined), for which the IC50 in data set [1] (read-out: IC50) was less than 0.05 µM.

`c1ccc2c(N3CCOCC3)nc(-c3cccc4[nH]ccc34)cc2c1`: the IC50 in data set [1] (read-out: IC50) was 0.26 µM.
